The values below come from ChEMBL document CHEMBL1126419 (Bioorg Med Chem Lett, 1992).

The term IC50 denotes the point on the concentration scale where inhibition reaches its midpoint. Low values mean higher potency, high ones lower potency.

The experiment addresses cAMP-dependent protein kinase (PKA) (Homo sapiens, UniProt P22694+P17612+P22612). Briefly: Inhibition of protein kinase A. Type of experiment: protein assay.
In turn, `O=C1NC(O)c2c1c1c3ccccc3[nH]c1c1[nH]c3ccccc3c21` (centres undefined) displayed an IC50 of 34 µM.
Regarding `O=C1NC(=O)c2c1c1c3cccc(Cl)c3[nH]c1c1[nH]c3c(Cl)cccc3c21`, the IC50 is more than 100 µM.
On to `O=C1NC(=O)c2c1c1c3ccccc3[nH]c1c1[nH]c3ccccc3c21` [STAUROSPORINE AGLYCON], for which the IC50 came out at 60 µM. That is a double-digit micromolar value.
Turning to `O=C1NCc2c1c1c3ccccc3[nH]c1c1[nH]c3ccccc3c21` [STAUROSPORINONE], the IC50 turned out to be 25.7 µM.
